Molecular target: T1, cathepsin K (Homo sapiens, UniProt P43235)
T1 construct: the active enzyme was obtained as the enzyme fraction by using detergent containing lysis buffer; made in house; host or cells: HEK293T (GenHunter Corporation), transient expression; detergent lysate used as enzyme fraction
T1 sequence (P43235 115-329): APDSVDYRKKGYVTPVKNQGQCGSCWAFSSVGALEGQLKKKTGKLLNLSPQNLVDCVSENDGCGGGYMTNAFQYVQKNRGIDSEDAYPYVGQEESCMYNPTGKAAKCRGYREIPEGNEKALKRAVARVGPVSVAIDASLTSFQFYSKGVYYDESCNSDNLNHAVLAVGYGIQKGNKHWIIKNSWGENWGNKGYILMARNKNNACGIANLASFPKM
Assay: Cathepsin K inhibitory activity (fluorescent substrate Z-Leu-Arg-MCA)
Assay type: biochemical
Conditions: enzyme expressed in HEK293T; 15 min preincubation, 30 min reaction at room temperature, pH 5.5; read-out: Activity Intensity (cathepsin K inhibitory activity, pIC50 class) (converted)
Method: Cathepsin K inhibitory activities of the compounds synthesized according to the methods of the above examples were measured.
Cathepsin K used for evaluation of inhibitory activity was transiently expressed in an animal cell HEK293T (made by GenHunter Corporation) and the active enzyme was obtained as the enzyme fraction by using detergent containing lysis buffer.
The enzyme solution A was prepared at 2.1 times final concentration by diluting the enzyme fraction with assay buffer (50 mM sodium acetate, 50 mM sodium chloride, 2 mM DTT, pH 5.5). The test compound solutions B were prepared at 50 times final target concentrations by dimethylsulfoxide (DMSO). As a substrate solution C, a solution of a fluorescent substrate, benzyloxycarbonyl-L-leucyl-L-arginyl-4-methyl-coumaryl-7-amide (Z-Leu-Arg-MCA (Peptide Institute Inc.), was prepared at 10 μM by an assay buffer.
To the enzyme solution A (38.4 μL) were added the test compound solutions B (1.6 μL) and mixed individually. The mixtures were incubated at room temperature for 15 minutes. To the incubated solutions were added the substrate solution C (40 μL) and the mixtures were reacted at room temperature for 30 minutes respectively. The fluorescence intensities of the enzyme reaction solutions were measured at excitation wavelength of 355 nm and measurement wavelength of 460 nm and the enzyme activities were calculated from these fluorescence intensities caused by 7-amino-4-methylcoumarine released. The enzyme activity with using DMSO instead of the test compound solution B was taken as 100% and the inhibitory rates at each concentration of the test compound were calculated. The […] response curve was fitted to the plots. The 50% inhibitory concentration against cathepsin K was calculated from this curve.
Note that the symbols (+, ++, and +++) in this table represent the inhibitory activity values as below. Here, pIC50 is the value representing a negative logarithm of IC50, (−log10(IC50)). IC50 is a 50% inhibitory concentration.

IC50 [nM] | Structure (SMILES)
3.16 to 31.6 | CC[C@@H](CNc1ccc(OC)cc1)NC(=O)[C@H](CC(C)(C)F)N[C@@H](c1ccc(-c2ccc(S(C)(=O)=O)cc2)cc1)C(F)(F)F [Compound 1, (2S)—N-((1S)-1-{[(4-methoxyphenyl)amino]methyl}propyl)-2-[((1S)-2,2,2-trifluoro-1-{4-[4-(methylsulfonyl)phenyl]phenyl}ethyl)amino]-4-fluoro-4-methylpentanamide]
31.6 to 10000 | COc1ccc(NC[C@H](COCc2ccccc2)NC(=O)[C@H](CC(C)(C)F)N[C@@H](c2ccc(-c3ccc(S(C)(=O)=O)cc3)cc2)C(F)(F)F)cc1 [Compound 2, N-{(1R)-2-[(4-methoxyphenyl)amino]-1-[(phenylmethoxy)methyl]ethyl}(2S)-2-[((1S)-2,2,2-trifluoro-1-{4-[4-(methylsulfonyl)phenyl]phenyl}ethyl)amino]-4-fluoro-4-methylpentanamide]
3.16 to 31.6 | COc1ccc(NC[C@H](CO)NC(=O)[C@H](CC(C)(C)F)N[C@@H](c2ccc(-c3ccc(S(C)(=O)=O)cc3)cc2)C(F)(F)F)cc1 [Compound 3, N-((1R)-2-hydroxy-1-{[(4-methoxyphenyl)amino]methyl}ethyl)(2S)-2-[((1S)-2,2,2-trifluoro-1-{4-[4-(methylsulfonyl)phenyl]phenyl}ethyl)amino]-4-fluoro-4-methylpentanamide]
≤ 3.16 | CCOc1ccc(NC[C@H](CC)NC(=O)[C@H](CC(C)(C)F)N[C@@H](c2ccc(-c3ccc(S(C)(=O)=O)cc3)cc2)C(F)(F)F)cc1OCC [Compound 4, (2S)—N-((1S)-1-{[(3,4-diethoxyphenyl)amino]methyl}propyl)-2-[((1S)-2,2,2-trifluoro-1-{4-[4-(methylsulfonyl)phenyl]phenyl}ethyl)amino]-4-fluoro-4-methylpentanamide]
≤ 3.16 | CC[C@@H](CNc1ccc(N2CCOCC2)cc1)NC(=O)[C@H](CC(C)(C)F)N[C@@H](c1ccc(-c2ccc(S(C)(=O)=O)cc2)cc1)C(F)(F)F [Compound 9, (2S)—N-((1S)-1-{[(4-morpholin-4-ylphenyl)amino]methyl}propyl)-2-[((1S)-2,2,2-trifluoro-1-{4-[4-(methylsulfonyl)phenyl]phenyl}ethyl)amino]-4-fluoro-4-methylpentanamide]
≤ 3.16 | CC[C@@H](CNc1ccc(N2CCCCC2)cc1)NC(=O)[C@H](CC(C)(C)F)N[C@@H](c1ccc(-c2ccc(S(C)(=O)=O)cc2)cc1)C(F)(F)F [Compound 10, (2S)—N-((1S)-1-{[(4-piperidin-1-ylphenyl)amino]methyl}propyl)-2-[((1S)-2,2,2-trifluoro-1-{4-[4-(methylsulfonyl)phenyl]phenyl}ethyl)amino]-4-fluoro-4-methylpentanamide]
≤ 3.16 | CC[C@@H](CNc1ccc(N(C)C)cc1)NC(=O)[C@H](CC(C)(C)F)N[C@@H](c1ccc(-c2ccc(S(C)(=O)=O)cc2)cc1)C(F)(F)F [Compound 12]
≤ 3.16 | CC[C@@H](CNc1ccc(N2CCSCC2)cc1)NC(=O)[C@H](CC(C)(C)F)N[C@@H](c1ccc(Br)cc1)C(F)(F)F [Compound 18]
≤ 3.16 | CC[C@@H](CNc1ccc(N2CCOCC2)cc1)NC(=O)[C@H](CC(C)C)N[C@@H](c1ccc(S(C)(=O)=O)cc1)C(F)(F)F [Compound 24]
≤ 3.16 | CC[C@@H](CNc1ccc(N2CCOCC2)cc1)NC(=O)[C@H](CC(C)C)N[C@@H](c1ccc(OC)nc1)C(F)(F)F [Compound 26]
≤ 3.16 | CC[C@@H](CNc1ccc(N2CCOCC2)cc1)NC(=O)[C@H](CC(C)C)N[C@@H](c1ccc(OCCOC)cc1)C(F)(F)F [Compound 30]
≤ 3.16 | CC[C@@H](CNc1ccc(N2CCOCC2)cc1)NC(=O)[C@H](CC(C)C)N[C@@H](c1ccc(OC(F)F)cc1)C(F)(F)F [Compound 33]
≤ 3.16 | CC[C@@H](CNc1ccc(N2CCOCC2)cc1)NC(=O)[C@H](CC(C)C)N[C@@H](c1ccc(Cl)cc1)C(F)(F)F [Compound 34]
≤ 3.16 | CC[C@@H](CNc1ccc(N2CCOCC2)cc1)NC(=O)[C@H](CC(C)C)N[C@@H](c1ccc(N(C)C)cc1)C(F)(F)F [Compound 35]

Continued, molecule first:

Structure (SMILES) | IC50 [nM]
CC[C@@H](CNc1ccc(OC)cc1OC)NC(=O)[C@H](CC(C)(C)F)N[C@@H](c1ccc(Br)cc1)C(F)(F)F [Compound 6] | ≤ 3.16
CC[C@@H](CNc1ccc(OC)cc1OC)NC(=O)C1(NC(c2ccccc2)C(F)(F)F)CCCCC1 (stereo partly drawn) [Compound 8, N-((1S)-1-{[(2,4-dimethoxyphenyl)amino]methyl}propyl){[(2,2,2-trifluoro-1-phenylethyl)amino]cyclohexyl}carboxamide] | 3.16 to 31.6
CC[C@@H](CNc1ccc(N2CCOCC2)cc1)NC(=O)C1(NC(c2ccccc2)C(F)(F)F)CCCCC1 (stereo partly drawn) [Compound 11, N-((1S)-1-{[(4-morpholin-1-ylphenyl)amino]methyl}propyl) {[(2,2,2-trifluoro-1-phenylethyl)amino]cyclohexyl}carboxamide] | 3.16 to 31.6
CC[C@@H](CNc1ccc(N(C)C)cc1)NC(=O)[C@H](CC(C)(C)F)N[C@@H](c1ccc(Br)cc1)C(F)(F)F [Compound 13] | ≤ 3.16
CC[C@@H](CNc1ccc(N(C)C)cc1)NC(=O)C1(NC(c2ccccc2)C(F)(F)F)CCCCC1 (some centres unmarked) [Compound 14] | 31.6 to 10000
CC[C@@H](CNc1c(OC)cccc1OC)NC(=O)[C@H](CC(C)(C)F)N[C@@H](c1ccc(Br)cc1)C(F)(F)F [Compound 15] | 3.16 to 31.6
CC[C@@H](CNc1ccc(OCCSC)cc1OC)NC(=O)[C@H](CC(C)(C)F)N[C@@H](c1ccc(Br)cc1)C(F)(F)F [Compound 16, (2S)-2-{[(1S)-1-(4-bromophenyl)-2,2,2-trifluoroethyl]amino}-N-[(1S)-1-({[2-methoxy-4-(2-methylthioethoxy)phenyl]amino}methyl)propyl]-4-fluoro-4-methylpentanamide] | ≤ 3.16
CC[C@@H](CNc1ccc(N2CCSCC2)cc1OC)NC(=O)[C@H](CC(C)(C)F)N[C@@H](c1ccc(Br)cc1)C(F)(F)F [Compound 17] | ≤ 3.16
CC[C@@H](CNc1ccc(OC)nc1OC)NC(=O)[C@H](CC(C)(C)F)N[C@@H](c1ccc(Br)cc1)C(F)(F)F [Compound 19] | 3.16 to 31.6
CC[C@@H](CNc1ccc(OCC(=O)OCc2ccccc2)cc1OC)NC(=O)[C@H](CC(C)(C)F)N[C@@H](c1ccc(Br)cc1)C(F)(F)F [Compound 20, Phenylmethyl 2-{4-[((2S)-2-{(2S)-2-{[(1S)-2,2,2-trifluoro-1-(4-bromophenyl)ethyl]amino}-4-fluoro-4-methylpentanoylamino}butyl)amino]-3-methoxyphenoxy}acetate] | ≤ 3.16
CC[C@@H](CNc1ccc(OC(C)C(=O)OC)cc1OC)NC(=O)[C@H](CC(C)(C)F)N[C@@H](c1ccccc1)C(F)(F)F (stereo partly drawn) [Compound 21, Methyl 2-{4-[((2S)-2-{(2S)-2-[((1S)-2,2,2-trifluoro-1-phenylethyl)amino]-4-fluoro-4-methylpentanoylamino}butyl)amino]-3-methoxyphenoxy}propanoate] | 3.16 to 31.6
CC[C@@H](CNc1ccc(OCC(F)(F)C(F)F)cc1OC)NC(=O)[C@H](CC(C)(C)F)N[C@@H](c1ccccc1)C(F)(F)F [Compound 22] | 3.16 to 31.6
CC[C@@H](CNc1ccc(OC)cc1OC)NC(=O)[C@H](CC(C)C)N[C@@H](c1ccc(S(C)(=O)=O)cc1)C(F)(F)F [Compound 23] | ≤ 3.16
CC[C@@H](CNc1ccc(OC)cc1OC)NC(=O)[C@H](CC(C)C)N[C@@H](c1ccc(OC)nc1)C(F)(F)F [Compound 25] | 3.16 to 31.6
CC[C@@H](CNc1ccc(N2CCOCC2)cc1)NC(=O)[C@H](CC(C)C)N[C@@H](c1cccnc1)C(F)(F)F [Compound 27] | ≤ 3.16
CC[C@@H](CNc1ccc(OC)cc1OC)NC(=O)C1(N[C@@H](c2ccccc2)C(F)(F)F)CCCC1 [Compound 28] | 31.6 to 10000
CC[C@@H](CNc1ccc(N2CCOCC2)cc1)NC(=O)[C@H](CC(C)C)N[C@@H](c1ccc2c(c1)OCO2)C(F)(F)F [Compound 29] | ≤ 3.16
CC[C@@H](CNc1ccc(N2CCOCC2)cc1)NC(=O)[C@H](CC(C)C)N[C@@H](c1ccccn1)C(F)(F)F [Compound 32] | ≤ 3.16
CC[C@@H](CNc1ccc(N2CCOCC2)cc1)NC(=O)[C@H](CC(C)C)N[C@@H](Cc1ccccc1)C(F)(F)F [Compound 37] | ≤ 3.16
CC[C@@H](CNc1ccc(OCCS(C)(=O)=O)cc1OC)NC(=O)[C@H](CC(C)C)N[C@@H](c1ccc(OC)nc1)C(F)(F)F [Compound 38] | 3.16 to 31.6
CC[C@@H](CNc1ccc(OCCS(C)(=O)=O)cc1OC)NC(=O)[C@H](CC(C)C)N[C@@H](c1cccnc1)C(F)(F)F [Compound 39] | 3.16 to 31.6
